pEC50, pIC50: −log10 of the molar value. ≈ marks a conversion by molar mass, not a printed value. Calls of active or inactive are those of the source. The rule behind the calls is not given here.
Assays:
[1] = target: T1, MAP kinase-activated protein kinase 2 (Homo sapiens, UniProt P49137); test: Inhibition of MK2 using 5TAMRA-KKLNRTLSVA-COOH as substrate incubated for 30 mins prior to substrate addition measured after 30 mins by immobilized metal ion affinity-based fluorescence polarization assay in presence of 100 uM ATP
Target sequence in this assay (P49137 whole entry): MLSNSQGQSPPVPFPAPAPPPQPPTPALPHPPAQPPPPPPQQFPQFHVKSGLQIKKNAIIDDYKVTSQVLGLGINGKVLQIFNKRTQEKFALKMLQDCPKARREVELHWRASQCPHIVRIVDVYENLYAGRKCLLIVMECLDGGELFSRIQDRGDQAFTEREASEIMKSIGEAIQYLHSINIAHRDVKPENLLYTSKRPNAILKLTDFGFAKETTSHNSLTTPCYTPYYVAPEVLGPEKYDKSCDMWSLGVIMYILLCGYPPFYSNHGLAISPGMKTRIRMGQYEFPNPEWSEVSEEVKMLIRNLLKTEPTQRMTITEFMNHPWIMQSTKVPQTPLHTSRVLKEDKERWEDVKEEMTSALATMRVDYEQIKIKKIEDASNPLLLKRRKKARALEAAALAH

[2] = target: T1, MAP kinase-activated protein kinase 2; test: Inhibition of MK2 in human THP1 cells assessed as inhibition of LPS-induced HSP27 Ser78 phosphorylation incubated for 60 mins prior to LPS-induction measured after 60 mins; assay type: cell-based, THP-1
Target sequence in this assay (P49137 whole entry): as above

[3] = target: T1, MAP kinase-activated protein kinase 2; test: Non-competitive inhibition of MK2 using 5TAMRA-KKLNRTLSVA-COOH as substrate by immobilized metal ion affinity-based fluorescence polarization assay in presence of 1 to 100 uM ATP
Target sequence in this assay (P49137 whole entry, looked up): as the sequence (P49137 whole entry) above

[4] = Solubility of the compound in 10 mM sodium phosphate buffer at pH 7.4; assay type: physicochemical
[5] = Solubility of the compound in 2% DMSO at pH 7.4; assay type: physicochemical
[6] = Plasma protein binding in rat; assay type: ADME, cell-free; details: read-out: PPB (converted)
Caco-2 = test: Permeability across human Caco2 cells; assay type: ADME, cell-based
[7] = Clearance in rat hepatocyte assessed per million cells; assay type: ADME, cell-based; details: hepatocytes, read-out: CLH
[8] = Plasma protein binding in human; assay type: ADME, cell-free; details: read-out: PPB (converted)

O=c1onc(-c2ccc(-c3ccc(Cl)cc3)o2)n1-c1ccc(N2CCNCC2)cc1
pIC50 [1]: 5.21

Clc1ccc(-c2ccc(C3=NOC(c4cnc[nH]4)N3c3ccc(N4CCNCC4)cc3)o2)cc1 (stereo not drawn)
pIC50 [1]: 7.15 | pEC50 [2]: 5.62

CNC(=O)c1ccc(-c2ccc(C3=NOC(c4ccccc4-c4cncnc4)N3c3ccc(N4CCNCC4)cc3)o2)cc1 (stereo not drawn)
pIC50 [1]: < 5.00

N#Cc1ccc(-c2ccc(C3=NOC(c4ccccc4-c4cncnc4)N3c3ccc(N4CCNCC4)cc3)o2)cc1 (stereo in doubt; 33)
pIC50 [1]: 8.10 | pEC50 [2]: 5.92

Clc1ccc(-c2ccc(C3=NOC(c4ccncc4)N3c3ccc(N4CCNCC4)cc3)o2)cc1 (stereo not drawn)
pIC50 [1]: 7.52 | pEC50 [2]: 5.57

N#Cc1ccc(-c2ccc(C3=NOCCN3c3ccc(N4CCNCC4)cc3)o2)cc1
pIC50 [1]: 6.96

Clc1ccc(-c2ccc(C3=NOC(c4ccncn4)N3c3ccc(N4CCNCC4)cc3)o2)cc1 (stereo not drawn)
pIC50 [1]: 7.22

FC1(F)CCN(c2ccc(N3C(c4ccc(-c5ccc(Cl)cc5)o4)=NOC3c3ccncc3)cc2)CC1 (stereo not drawn)
pIC50 [1]: < 5.00

Clc1ccc(-c2ccc(-c3nocc3-c3ccc(N4CCNCC4)cc3)o2)cc1
pIC50 [1]: 5.47

N#Cc1cccc(-c2ccc(C3=NOC(c4ccccc4-c4cncnc4)N3c3ccc(N4CCNCC4)cc3)o2)c1 (stereo not drawn)
pIC50 [1]: 5.28

Clc1ccc(-c2ccc(C3=NOCCCN3c3ccc(N4CCNCC4)cc3)o2)cc1
pIC50 [1]: 5.85

Fc1ccc(C2ON=C(c3ccc(-c4ccc(Cl)cc4)o3)N2c2ccc(N3CCNCC3)cc2)cc1 (stereo not drawn)
pIC50 [1]: 6.80

N#Cc1ccc(-c2ccc(C3=NOC(c4ccccc4-c4cncnc4)N3c3ccc(N4CCNCC4)cc3)o2)cc1 (single isomer, unassigned; enantiomer 2)
pIC50 [1]: 6.47

Clc1ccc(-c2ccc(-c3cc(-c4ccc(N5CCNCC5)cc4)on3)o2)cc1
pIC50 [1]: < 5.00

Clc1ccc(-c2ccc(C3ON=C(c4ccccc4)N3c3ccc(N4CCNCC4)cc3)o2)cc1 (stereo not drawn)
pIC50 [1]: 5.43

Clc1ccc(-c2ccc(C3=NOC(c4ccccn4)N3c3ccc(N4CCNCC4)cc3)o2)cc1 (stereo not drawn)
pIC50 [1]: 7.52 | pEC50 [2]: 5.52

N#Cc1ccc(-c2ccc(C3=NOC(c4ccccc4-c4cncnc4)N3c3ccc(N4CCNCC4)cc3)o2)cc1 (stereo in doubt; 38) [listing 1 of 2 here]
inhibition [3]: Active

Fc1ccc(C2ON=C(c3ccc(-c4ccc(Cl)cc4)o3)N2c2ccc(N3CCNCC3)cc2)nc1 (stereo not drawn)
pIC50 [1]: 7.22 | pEC50 [2]: 5.43

Clc1cccc(-c2ccc(C3=NOC(c4ccccc4-c4cncnc4)N3c3ccc(N4CCNCC4)cc3)o2)c1 (stereo not drawn)
pIC50 [1]: 5.89

Clc1ccc(-c2ccc(C3=NOC(c4cccnc4)N3c3ccc(N4CCNCC4)cc3)o2)cc1 (stereo not drawn)
pIC50 [1]: 7.30

COc1ccc(-c2ccc(C3=NOC(c4ccccc4-c4cncnc4)N3c3ccc(N4CCNCC4)cc3)o2)cc1 (stereo not drawn)
pIC50 [1]: 6.51

c1ccc(C2ON=C(c3ccc(-c4ccncc4)o3)N2c2ccc(N3CCNCC3)cc2)c(-c2cncnc2)c1 (stereo not drawn)
pIC50 [1]: 6.10

Fc1ccc(C2ON=C(c3ccc(-c4ccc(Cl)cc4)o3)N2c2ccc(N3CCNCC3)cc2)c(F)c1 (stereo not drawn)
pIC50 [1]: 7.00

N#Cc1ccc(-c2ccc(C3=NOC(c4ccccc4-c4cncnc4)N3c3ccc(N4CCNCC4)cc3)o2)cc1 (stereo in doubt; 38) [listing 2 of 2 here]
pIC50 [1]: 8.22 | pEC50 [2]: 6.77 | solubility [4]: 20 µM (≈ 11.1 µg/mL) | solubility [5]: 20 µM (≈ 11.1 µg/mL) | fraction unbound [6]: 0.031 | permeability (Caco-2): permeable | hepatocyte CLint [7]: 35 µL/min/1e6 cells | fraction unbound [8]: 0.035

Clc1ccc(-c2ccc(C3=NOC(c4ccncc4)N3c3ccc(C4CCNCC4)cc3)o2)cc1 (stereo not drawn)
pIC50 [1]: 6.72

Fc1ccc(-c2ccc(C3=NOC(c4ccccc4-c4cncnc4)N3c3ccc(N4CCNCC4)cc3)o2)cc1 (stereo not drawn)
pIC50 [1]: 7.30 | pEC50 [2]: 6.12

Fc1cc(-c2ccc(C3=NOC(c4ccccc4-c4cncnc4)N3c3ccc(N4CCNCC4)cc3)o2)ccc1Cl (stereo not drawn)
pIC50 [1]: 6.66

Clc1ccc(-c2ccc(C3=NOC(c4ccncc4)N3Cc3ccc(N4CCNCC4)cc3)o2)cc1 (stereo not drawn)
pIC50 [1]: < 5.00

Clc1ccc(-c2ccc(C3=NOC(c4ccccc4-c4cncnc4)N3c3ccc(N4CCNCC4)cc3)o2)cc1Cl (stereo not drawn)
pIC50 [1]: 6.01

Fc1cc(F)cc(C2ON=C(c3ccc(-c4ccc(Cl)cc4)o3)N2c2ccc(N3CCNCC3)cc2)c1 (stereo not drawn)
pIC50 [1]: 6.72

Source: ChEMBL document CHEMBL2034849, “Discovery of a Potent Dihydrooxadiazole Series of Non-ATP-Competitive MK2 (MAPKAPK2) Inhibitors” (ACS Med Chem Lett, 2012)
